Test results as given in patent publication US20170304168A1, “PHENYL KETONE DERIVATIVES AS SELF-TANNING AGENTS” (MERCK PATENT GmbH, priority 2012, published 2017).

System: B16V mouse melanoma cells
Experiment: B16 V mouse melanoma cell test (melanin content)
Type: cell-based
Conditions: for Melanin content in pg/B-16V cell: relative to negative control DMSO 0.1% = 100
Experimental: mouse melanoma cells (manufacturer: DSMZ; Article No.: ACC370) in RPMI medium (Invitrogen, Article No.: 31870), to which 10% of FBS (foetal bovine serum; Invitrogen, Article No.: 10499044), 2 mM L-glutamine (Invitrogen, Article No: 25030) and 1 mM sodium pyruvate (Invitrogen, Article No.: 11360) had additionally been added (=modified RPMI medium), are transferred into a culture flask and incubated at 37° C. and 5% CO2 for 72 h. The medium is separated off, and the cells are washed with 10 ml of D-PBS (Dulbecco's phosphate-buffered salines; Invitrogen, Article No.: 14190) and subsequently removed by suction. 1 ml of HyQtase cell detachment solution (Hyclone, Article No.: SV30030.01) is added to the cells. The bottle is swirled a number of times, and the HyQtase cell detachment solution is subsequently removed by suction. The cells are then incubated in the incubator at 37° C. and 5% CO2 for 5 min. The cells are taken up in the modified RPMI medium (see above), and the cell count is determined. To this end, the cells are stained with Trypan Blue and counted in a Neubauer chamber. The cells are subsequently sown out again in the modified RPMI medium (see above) in a defined cell count of 80,000 cells per well (6-well clear plate, TCT, PS (Nunc)). The cells are incubated at 37° C. and 5% CO2 for 24 h, the medium is then removed. The substance to be investigated (see table below) is subsequenly added in various concentrations. After the final incubation period, the medium is removed by suction, and the cells are washed with 1000 μl of D-PBS (Invitrogen, Article No.: 14190). The medium is again removed by suction. 250 μl of HyQtase cell detachment solution (Hyclone, Article No.: SV30030.01) are added to the cells. The 6-well plate is swirled a number of times, and the HyQtase cell detachment solution is subsequently removed by suction. The cells are then incubated in the incubator at 37° C. and 5% CO2 for 5 min. The cells are taken up in 1.5 ml of DPBS (Invitrogen, Article No.: 14190) and transferred into a cup (SARSTEDT, Ref. 72.692.005). The cell count is subsequently determined. To this end, the cells are stained with Trypan Blue and counted in a NeuBauer chamber. The cells are then centrifuged at 3500 g for 1 min. The pellets obtained are photographed, and the supernatant is subsequently removed by suction. The pellets are dissolved in 1 ml of 1N NaOH at 80° C. for 1 h and then cooled to RT. 200 μl per cup (as quadruple determination) are subsequently pipetted into a 96-well plate (VWR, Article No.: 4100636981), and the absorption at a wavelength of 405 nm is determined (Safire, Tecan). The content of melanin can be determined in this way by means of a calibration line. As comparison with the compounds of the formula I to be investigated, a sample with dimethyl sulfoxide (DMSO) (0.1%) as negative control and a sample with IBMX (200 μm) as positive control are each investigated in parallel. The following tables give the results of the determination of the melanin concentration obtained for the substance dilutions indicated. The results obtained are quoted relative to the negative control with dimethyl sulfoxide (DMSO), whose measurement value is set to 100%. IBMX serves as positive control.

[1] = Test 1, 300 μM (printed 300 µM)

Structure (SMILES) | Effect on melanogenesis (result in words) (Result of Test 1) | Melanin content in pg/B-16V cell (Test 1, 50 μM) | Effect on melanogenesis (result in words) (Result of Test 2) | Melanin content in pg/B-16V cell (Test 2, 100 μM) | Melanin content in pg/B-16V cell (Test 2, 500 μM) | also measured
COc1ccccc1C(C)=O [Ib, 1-(2-Methoxyphenyl)ethanone] | promote melanogenesis | 202 pg/B-16V cell |  |  |  | Melanin content in pg/B-16V cell [1]: 318 pg/B-16V cell; Melanin content in pg/B-16V cell (Test 1, 1 mM): 611 pg/B-16V cell
COc1ccc(C(C)=O)c(OC)c1 [Ie, 1-(2,4-Dimethoxyphenyl)-ethanone] |  |  | promote melanogenesis | 104 pg/B-16V cell | 121 pg/B-16V cell | 
CC(=O)c1ccccc1O [Ia, 1-(2-Hydroxyphenyl)ethanone] | promote melanogenesis | 191 pg/B-16V cell |  |  |  | Melanin content in pg/B-16V cell [1]: 429 pg/B-16V cell; Melanin content in pg/B-16V cell (Test 1, 1 mM): 438 pg/B-16V cell
CC(C)Cn1c(=O)n(C)c(=O)c2[nH]cnc21 [IBMX, reference compound] |  |  |  |  |  | Melanin content in pg/B-16V cell (Test 1, 200 μM (printed 200 µM)): 726 pg/B-16V cell; Melanin content in pg/B-16V cell (Test 2, 200 μM (printed 200 µM)): 338 pg/B-16V cell
CC(=O)c1c(O)cc(O)cc1O [Ic] | promote melanogenesis | 129 pg/B-16V cell |  |  |  | Melanin content in pg/B-16V cell (Test 1, 100 μM): 144 pg/B-16V cell; Melanin content in pg/B-16V cell (Test 1, 500 μM): 184 pg/B-16V cell
COc1cc(OC)c(C(C)=O)c(OC)c1 [Ih] |  |  | promote melanogenesis | 126 pg/B-16V cell | 164 pg/B-16V cell | 
COc1cccc(O)c1C(C)=O [Id, 1-(2-Hydroxy-6-methoxyphenyl)ethanone] |  |  | promote melanogenesis | 275 pg/B-16V cell | 432 pg/B-16V cell | 
CC(=O)c1ccccc1N [Ig] |  |  | promote melanogenesis | 133 pg/B-16V cell | 209 pg/B-16V cell | 
